Assay results reported in article PMC7532004, “Site-specific effects of neurosteroids on GABAA receptor activation and desensitization” (eLife, 2020).

How the values were obtained:
[1] = molecular target: α1(Q242L/N408A/Y411F)β3 GABAAR (UniProt P28472+P62813, N434A/Q268L/Y437F); test: [3H]muscimol binding to HEK cell membranes, intersubunit + α1 intrasubunit site mutant; set-up: expressed in transfected cells; host or cells: HEK293S GnTI- (ATCC CRL-3022), transient; species or system rat α1, human β3; conditions: 3 nM [3H]muscimol, 100% means no effect
α1(Q242L/N408A/Y411F)β3 GABAAR, sequence (P62813 28-455 Q268L/N434A/Y437F, one chain of several): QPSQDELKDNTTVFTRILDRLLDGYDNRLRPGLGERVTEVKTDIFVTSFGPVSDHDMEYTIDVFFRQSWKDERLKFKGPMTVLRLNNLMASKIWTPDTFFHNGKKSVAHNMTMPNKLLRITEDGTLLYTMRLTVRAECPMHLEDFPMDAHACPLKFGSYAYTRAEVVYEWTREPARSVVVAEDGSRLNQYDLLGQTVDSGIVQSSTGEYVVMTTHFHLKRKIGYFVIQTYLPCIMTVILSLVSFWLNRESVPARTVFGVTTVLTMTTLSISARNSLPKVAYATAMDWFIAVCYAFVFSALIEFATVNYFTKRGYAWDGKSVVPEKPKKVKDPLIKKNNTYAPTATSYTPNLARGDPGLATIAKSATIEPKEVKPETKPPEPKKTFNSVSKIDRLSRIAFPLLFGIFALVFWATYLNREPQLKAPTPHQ
Protocol: The human α1 and β3 GABAAR subunits were subcloned into pcDNA3 for molecular manipulations and cRNA synthesis. Using QuikChange Site-Directed Mutagenesis Kit (Agilent Technologies, Santa Clara, CA), a FLAG tag was first added to the α1 subunit then an 8xHis tag was added to generate the following His-FLAG tag tandem ([…]), inserted between the fourth and fifth residues of the mature peptide. The α1 and β3 subunits were then transferred into the pcDNA4/TO and pcDNA5/TO vectors (Thermo Fisher Scientific), respectively, for tetracycline inducible expression. Transient expression was done using the GABAAR subunits rat α1FLAG ([Ueno et al., 1996]) and human β3 obtained from Geoffrey White (Neurogen, Branford, CT), each were subcloned into pcDNA3 for molecular manipulations and cRNA synthesis. […]
[^3H]muscimol-binding assays were performed using a previously described method ([Chen et al., 2019]). […] Time courses of neurosteroid [^3H]muscimol binding enhancement were examined by adding 10 µM of neurosteroids (3α5αP, 3β5αP) to membranes that had been fully equilibrated with 3 nM [^3H]muscimol for 1 hr on ice; binding was then measured as a function of time at 1, 3, 10, 30, 60 min. […] Radioactivity bound to the filters was measured by liquid scintillation spectrometry using Bio-Safe II (Research Products International, Mount Prospect, IL).

[2] = molecular target: T1, α1β3 GABAARs on intact HEK cell surfaces (Homo sapiens, UniProt P14867+P28472); test: [3H]muscimol binding to intact HEK cells (cell surface vs total receptors); conditions: 10 μM KK148; 3 nM [3H]muscimol; intact vs permeabilized HEK cells
T1 construct: inserted between the fourth and fifth residues of the mature peptide; photolabeling full-length heteropentameric GABAARs in native membranes; expressed in transfected cells
T1 sequence (P14867 28-456): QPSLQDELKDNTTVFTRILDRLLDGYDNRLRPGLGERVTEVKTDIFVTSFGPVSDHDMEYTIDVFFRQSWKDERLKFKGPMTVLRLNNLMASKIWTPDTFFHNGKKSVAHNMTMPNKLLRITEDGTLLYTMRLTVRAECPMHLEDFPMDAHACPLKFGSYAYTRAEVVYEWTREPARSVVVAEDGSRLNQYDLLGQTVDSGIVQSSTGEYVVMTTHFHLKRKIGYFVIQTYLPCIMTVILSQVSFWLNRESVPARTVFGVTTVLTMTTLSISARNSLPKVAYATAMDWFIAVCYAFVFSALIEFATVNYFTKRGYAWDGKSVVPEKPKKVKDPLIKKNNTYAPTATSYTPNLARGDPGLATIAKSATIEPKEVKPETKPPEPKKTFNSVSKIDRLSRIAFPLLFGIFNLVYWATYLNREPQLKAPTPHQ
T1 sequence (P28472 26-473): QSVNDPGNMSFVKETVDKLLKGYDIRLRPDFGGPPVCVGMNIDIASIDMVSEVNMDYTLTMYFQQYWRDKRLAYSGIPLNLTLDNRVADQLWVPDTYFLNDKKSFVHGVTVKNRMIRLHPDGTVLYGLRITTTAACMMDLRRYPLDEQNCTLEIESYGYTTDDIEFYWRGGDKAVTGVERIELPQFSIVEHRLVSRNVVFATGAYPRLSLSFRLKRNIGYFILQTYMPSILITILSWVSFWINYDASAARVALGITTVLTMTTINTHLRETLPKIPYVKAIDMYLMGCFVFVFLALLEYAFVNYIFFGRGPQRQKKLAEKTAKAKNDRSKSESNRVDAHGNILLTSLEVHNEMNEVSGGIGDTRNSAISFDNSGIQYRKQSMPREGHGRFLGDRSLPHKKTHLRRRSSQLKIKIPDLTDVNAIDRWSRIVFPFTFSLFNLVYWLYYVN
Protocol: HEK cells were harvested by gently washing dishes with buffer containing 10 mM sodium phosphate (pH 7.5), 150 mM sodium chloride twice. The cells were collected by centrifugation at 500 g at 4°C for 5 min, and resuspended in isotonic (10 mM sodium phosphate, 150 mM sodium chloride, pH 7.5) or hypotonic (10 mM sodium phosphate, pH 7.5) buffer to prepare two different conditions for radioligand binding to intact cells [isotonic buffer for cell surface receptors; hypotonic buffer for total receptors (cell surface receptors + intracellular receptors)]. The cells were incubated on ice for 2 hr, after which the sodium chloride concentration was adjusted to be isotonic before the radioligand binding procedure. HEK cells were aliquoted to assay tubes (20 samples/150 mm dish) in a total volume of 1 ml, and incubated with 3 nM [^3H]muscimol ±10 μM KK148 for 1 hr on ice in the dark.

CC(=O)[C@H]1CC[C@H]2[C@@H]3CC[C@H]4C[C@H](O)CC[C@]4(C)[C@H]3CC[C@]12C [3α5αP, allopregnanolone]
Emax (% of control) of [3H]muscimol binding [1]: **105.9 ± 7.3 % of control

C#CCCO[C@H]1CC[C@H]2[C@@H]3CC[C@H]4CC5(CC[C@]4(C)[C@H]3CC[C@]12C)N=N5 [KK148]
Enhancement of specific [3H]muscimol binding in intact cells [2]: enhanced
